Data published in patent publication US8703961B2, “Thiazole derivatives for the treatment of diseases such as cancer” (Merck Patent GmbH, priority 2009, dated 2014).

Columns and labels:
Experiment in all cases: filter binding kinase assay
Assay type in all cases: biochemical
AURKB = molecular target: T1, AURKB (Homo sapiens, UniProt Q96GD4); conditions: derived from % inhibition at 1 μM
T1 construct: purchased
In short: (§1)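 Radioactivity retained on P81 phosphocellulose filters is the read-out. Before the reaction begins, test substance sits with kinase and substrate for 5 minutes at room temperature. The ATP solution added is 5, 20 or 50 […] according to the kinase, and acid quench ends the reaction.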

IGF1R = molecular target: T2, IGF1R (Homo sapiens, UniProt P08069); conditions: derived from % inhibition at 1 μM
T2 construct: purchased
In short: as §1

MAPK11 = molecular target: T3, MAPK11 (Homo sapiens, UniProt Q15759); conditions: derived from % inhibition at 1 μM
T3 construct: purchased
T3 sequence (Q15759 whole entry, species assumed): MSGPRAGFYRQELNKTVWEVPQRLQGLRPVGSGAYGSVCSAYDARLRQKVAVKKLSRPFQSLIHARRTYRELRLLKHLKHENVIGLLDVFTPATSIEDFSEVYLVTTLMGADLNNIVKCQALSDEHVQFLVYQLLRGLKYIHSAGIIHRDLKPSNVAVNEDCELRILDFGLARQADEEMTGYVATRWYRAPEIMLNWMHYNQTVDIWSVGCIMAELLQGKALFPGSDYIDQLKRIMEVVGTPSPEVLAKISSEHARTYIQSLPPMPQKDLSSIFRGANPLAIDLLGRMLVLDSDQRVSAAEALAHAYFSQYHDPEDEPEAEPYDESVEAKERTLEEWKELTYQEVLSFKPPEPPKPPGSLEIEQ
In short: as §1

MAPK14 = molecular target: T4, MAPK14 (Homo sapiens, UniProt Q16539); conditions: derived from % inhibition at 1 μM
T4 construct: purchased
T4 sequence (Q16539 whole entry, species assumed): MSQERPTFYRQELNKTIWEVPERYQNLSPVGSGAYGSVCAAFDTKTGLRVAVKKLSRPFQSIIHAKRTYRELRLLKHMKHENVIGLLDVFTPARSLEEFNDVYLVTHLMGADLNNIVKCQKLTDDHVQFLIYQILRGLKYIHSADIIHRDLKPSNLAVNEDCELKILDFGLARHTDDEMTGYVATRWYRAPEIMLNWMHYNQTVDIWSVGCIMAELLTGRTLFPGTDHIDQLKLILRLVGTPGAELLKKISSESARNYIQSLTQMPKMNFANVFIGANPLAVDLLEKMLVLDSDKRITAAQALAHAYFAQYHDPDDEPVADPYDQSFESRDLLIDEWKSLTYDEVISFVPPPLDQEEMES
In short: as §1

MAPKAPK3 = molecular target: T5, MAPKAPK3 (Homo sapiens, UniProt Q16644); conditions: derived from % inhibition at 1 μM
T5 construct: purchased
T5 sequence (Q16644 whole entry, species assumed): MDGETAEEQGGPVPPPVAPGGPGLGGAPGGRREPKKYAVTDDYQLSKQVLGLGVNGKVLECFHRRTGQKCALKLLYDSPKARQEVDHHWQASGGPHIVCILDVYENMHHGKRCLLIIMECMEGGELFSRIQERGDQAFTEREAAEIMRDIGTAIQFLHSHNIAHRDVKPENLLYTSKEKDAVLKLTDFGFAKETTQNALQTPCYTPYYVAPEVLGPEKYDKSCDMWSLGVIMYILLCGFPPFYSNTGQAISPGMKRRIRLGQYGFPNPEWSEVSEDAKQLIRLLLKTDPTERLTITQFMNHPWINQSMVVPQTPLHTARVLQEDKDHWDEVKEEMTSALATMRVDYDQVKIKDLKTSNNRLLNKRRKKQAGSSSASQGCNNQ
In short: as §1

PDPK1 (PDK1) = molecular target: T6, PDPK1 (PDK1) (Homo sapiens, UniProt O15530); conditions: for IC50: derived from % inhibition at 1 μM, first PDPK1 line
T6 construct: purchased
T6 sequence (O15530 1-556): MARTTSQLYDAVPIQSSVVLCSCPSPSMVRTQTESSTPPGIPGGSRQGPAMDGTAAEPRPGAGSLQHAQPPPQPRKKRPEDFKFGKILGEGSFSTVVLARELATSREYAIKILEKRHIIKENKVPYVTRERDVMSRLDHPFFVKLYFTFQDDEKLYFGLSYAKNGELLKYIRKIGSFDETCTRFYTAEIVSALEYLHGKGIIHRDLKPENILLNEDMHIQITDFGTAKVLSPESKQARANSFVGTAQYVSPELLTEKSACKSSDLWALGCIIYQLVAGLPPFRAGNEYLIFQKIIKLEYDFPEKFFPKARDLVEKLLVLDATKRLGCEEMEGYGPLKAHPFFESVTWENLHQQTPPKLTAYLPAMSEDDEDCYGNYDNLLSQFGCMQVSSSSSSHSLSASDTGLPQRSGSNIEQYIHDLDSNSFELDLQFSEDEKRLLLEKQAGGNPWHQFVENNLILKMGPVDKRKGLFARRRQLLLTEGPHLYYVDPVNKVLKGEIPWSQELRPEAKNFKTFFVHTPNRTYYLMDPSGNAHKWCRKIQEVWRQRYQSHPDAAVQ
In short: as §1

PKN2 (PRK2) = molecular target: T7, PKN2 (PRK2) (Homo sapiens, UniProt Q16513); conditions: for IC50: derived from % inhibition at 1 μM
T7 construct: purchased
T7 sequence (Q16513 whole entry, species assumed): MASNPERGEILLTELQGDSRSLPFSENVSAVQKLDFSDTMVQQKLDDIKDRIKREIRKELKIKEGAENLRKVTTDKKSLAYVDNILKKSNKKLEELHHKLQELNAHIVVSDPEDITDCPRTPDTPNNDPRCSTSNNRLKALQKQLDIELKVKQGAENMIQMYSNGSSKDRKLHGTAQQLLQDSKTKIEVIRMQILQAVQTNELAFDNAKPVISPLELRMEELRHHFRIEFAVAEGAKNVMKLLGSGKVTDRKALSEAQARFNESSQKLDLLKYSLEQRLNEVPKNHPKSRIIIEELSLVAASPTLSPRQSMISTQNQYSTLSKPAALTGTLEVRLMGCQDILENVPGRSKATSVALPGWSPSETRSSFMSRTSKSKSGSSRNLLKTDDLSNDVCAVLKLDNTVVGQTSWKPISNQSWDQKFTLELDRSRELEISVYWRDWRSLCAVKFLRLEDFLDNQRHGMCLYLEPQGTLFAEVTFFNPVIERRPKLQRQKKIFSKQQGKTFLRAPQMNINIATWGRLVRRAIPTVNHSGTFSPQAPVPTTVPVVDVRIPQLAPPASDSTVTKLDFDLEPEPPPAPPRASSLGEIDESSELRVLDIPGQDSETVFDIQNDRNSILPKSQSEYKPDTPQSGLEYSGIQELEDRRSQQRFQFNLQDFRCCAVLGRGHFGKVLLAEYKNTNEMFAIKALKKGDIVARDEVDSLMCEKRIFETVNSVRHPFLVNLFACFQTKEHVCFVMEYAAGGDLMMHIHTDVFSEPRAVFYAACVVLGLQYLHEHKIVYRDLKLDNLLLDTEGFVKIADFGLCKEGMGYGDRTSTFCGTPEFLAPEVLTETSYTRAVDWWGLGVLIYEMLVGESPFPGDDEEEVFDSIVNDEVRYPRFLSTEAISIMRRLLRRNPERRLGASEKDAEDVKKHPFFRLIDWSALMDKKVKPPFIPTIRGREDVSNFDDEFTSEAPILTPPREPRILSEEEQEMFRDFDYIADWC
In short: as §1

PRKAA1 = molecular target: T8, PRKAA1 (Homo sapiens, UniProt Q13131); conditions: derived from % inhibition at 1 μM
T8 construct: purchased
In short: as §1

PRKCZ = molecular target: T9, PRKCZ (Homo sapiens, UniProt Q05513); conditions: derived from % inhibition at 1 μM
T9 construct: purchased
T9 sequence (Q05513 1-592): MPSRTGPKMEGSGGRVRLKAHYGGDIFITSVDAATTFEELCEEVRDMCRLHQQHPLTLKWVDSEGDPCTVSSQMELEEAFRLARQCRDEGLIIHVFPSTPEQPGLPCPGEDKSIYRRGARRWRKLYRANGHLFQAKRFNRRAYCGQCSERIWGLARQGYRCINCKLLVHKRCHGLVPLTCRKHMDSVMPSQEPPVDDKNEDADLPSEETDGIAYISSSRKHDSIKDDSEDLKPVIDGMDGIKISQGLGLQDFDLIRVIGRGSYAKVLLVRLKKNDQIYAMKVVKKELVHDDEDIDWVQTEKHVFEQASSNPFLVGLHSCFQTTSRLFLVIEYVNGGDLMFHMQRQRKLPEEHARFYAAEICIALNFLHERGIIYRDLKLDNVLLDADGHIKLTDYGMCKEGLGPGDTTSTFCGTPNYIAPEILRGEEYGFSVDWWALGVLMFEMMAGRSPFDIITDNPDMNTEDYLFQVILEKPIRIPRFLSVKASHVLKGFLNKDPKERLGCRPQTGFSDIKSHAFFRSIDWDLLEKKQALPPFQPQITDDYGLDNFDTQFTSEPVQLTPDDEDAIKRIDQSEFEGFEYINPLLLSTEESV
In short: as §1

ROCK2 (Rock II) = molecular target: T10, ROCK2 (Rock II) (Homo sapiens, UniProt O75116); conditions: for IC50: derived from % inhibition at 1 μM
T10 construct: purchased
T10 sequence (O75116 whole entry, species assumed): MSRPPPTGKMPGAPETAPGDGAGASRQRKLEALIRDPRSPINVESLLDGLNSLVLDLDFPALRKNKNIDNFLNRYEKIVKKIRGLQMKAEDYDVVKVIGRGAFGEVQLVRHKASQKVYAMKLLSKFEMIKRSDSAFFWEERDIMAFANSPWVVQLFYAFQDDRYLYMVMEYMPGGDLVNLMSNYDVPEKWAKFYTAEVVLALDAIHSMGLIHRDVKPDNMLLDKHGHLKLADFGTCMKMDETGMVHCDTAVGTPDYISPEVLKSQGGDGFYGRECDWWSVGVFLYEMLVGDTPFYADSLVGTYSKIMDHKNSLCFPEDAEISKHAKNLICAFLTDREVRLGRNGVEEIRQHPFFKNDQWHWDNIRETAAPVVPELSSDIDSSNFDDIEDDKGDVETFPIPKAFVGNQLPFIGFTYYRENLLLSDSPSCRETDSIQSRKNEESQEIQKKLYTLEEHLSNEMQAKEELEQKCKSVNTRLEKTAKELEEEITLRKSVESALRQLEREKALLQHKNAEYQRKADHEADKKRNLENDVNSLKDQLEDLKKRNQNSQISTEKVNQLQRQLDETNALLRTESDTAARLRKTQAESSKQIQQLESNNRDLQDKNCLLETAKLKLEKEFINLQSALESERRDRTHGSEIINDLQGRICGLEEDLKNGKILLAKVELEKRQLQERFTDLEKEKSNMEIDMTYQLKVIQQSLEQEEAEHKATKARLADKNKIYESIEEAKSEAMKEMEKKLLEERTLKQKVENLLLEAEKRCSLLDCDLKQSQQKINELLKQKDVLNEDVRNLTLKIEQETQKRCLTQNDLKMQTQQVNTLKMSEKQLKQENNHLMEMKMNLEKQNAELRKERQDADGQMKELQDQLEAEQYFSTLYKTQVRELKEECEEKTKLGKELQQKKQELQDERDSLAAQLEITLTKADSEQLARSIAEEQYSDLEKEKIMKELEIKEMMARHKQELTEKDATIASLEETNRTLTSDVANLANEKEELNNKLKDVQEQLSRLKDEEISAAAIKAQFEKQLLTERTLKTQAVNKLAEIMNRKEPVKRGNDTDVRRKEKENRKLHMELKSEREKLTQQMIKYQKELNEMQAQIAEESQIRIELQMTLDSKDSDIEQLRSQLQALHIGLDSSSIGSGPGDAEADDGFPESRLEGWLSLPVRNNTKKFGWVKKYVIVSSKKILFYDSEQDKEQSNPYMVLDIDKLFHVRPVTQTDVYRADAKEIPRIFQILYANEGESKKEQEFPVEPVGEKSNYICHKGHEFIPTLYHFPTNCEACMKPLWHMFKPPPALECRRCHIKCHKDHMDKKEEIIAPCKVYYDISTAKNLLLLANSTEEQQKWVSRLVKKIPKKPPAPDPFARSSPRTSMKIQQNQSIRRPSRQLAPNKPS
In short: as §1

RPS6KA5 = molecular target: T11, RPS6KA5 (Homo sapiens, UniProt O75582); conditions: derived from % inhibition at 1 μM
T11 construct: purchased
T11 sequence (O75582 whole entry, species assumed): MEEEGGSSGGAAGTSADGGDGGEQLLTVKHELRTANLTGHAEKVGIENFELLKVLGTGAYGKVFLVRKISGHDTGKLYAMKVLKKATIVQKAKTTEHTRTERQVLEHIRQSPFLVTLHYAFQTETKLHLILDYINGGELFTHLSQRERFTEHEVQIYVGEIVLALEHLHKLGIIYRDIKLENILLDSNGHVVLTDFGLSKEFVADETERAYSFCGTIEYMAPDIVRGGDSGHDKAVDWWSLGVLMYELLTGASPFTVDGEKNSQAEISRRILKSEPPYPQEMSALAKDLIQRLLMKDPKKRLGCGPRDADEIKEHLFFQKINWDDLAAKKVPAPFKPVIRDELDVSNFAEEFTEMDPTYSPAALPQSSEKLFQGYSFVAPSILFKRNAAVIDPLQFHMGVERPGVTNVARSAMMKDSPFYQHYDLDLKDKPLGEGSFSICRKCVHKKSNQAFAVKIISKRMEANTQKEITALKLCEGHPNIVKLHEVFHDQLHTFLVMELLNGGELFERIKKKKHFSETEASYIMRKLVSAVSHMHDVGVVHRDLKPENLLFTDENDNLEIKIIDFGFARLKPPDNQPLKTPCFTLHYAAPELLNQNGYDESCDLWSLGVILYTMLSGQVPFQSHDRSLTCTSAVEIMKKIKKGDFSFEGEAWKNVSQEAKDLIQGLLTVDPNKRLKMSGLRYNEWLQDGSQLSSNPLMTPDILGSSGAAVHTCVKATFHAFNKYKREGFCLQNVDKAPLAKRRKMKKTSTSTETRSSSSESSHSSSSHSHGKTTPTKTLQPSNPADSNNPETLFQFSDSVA
In short: as §1

TTK = molecular target: T12, TTK (Homo sapiens, UniProt P33981); conditions: derived from % inhibition at 1 μM
T12 construct: purchased
T12 sequence (P33981 1-857): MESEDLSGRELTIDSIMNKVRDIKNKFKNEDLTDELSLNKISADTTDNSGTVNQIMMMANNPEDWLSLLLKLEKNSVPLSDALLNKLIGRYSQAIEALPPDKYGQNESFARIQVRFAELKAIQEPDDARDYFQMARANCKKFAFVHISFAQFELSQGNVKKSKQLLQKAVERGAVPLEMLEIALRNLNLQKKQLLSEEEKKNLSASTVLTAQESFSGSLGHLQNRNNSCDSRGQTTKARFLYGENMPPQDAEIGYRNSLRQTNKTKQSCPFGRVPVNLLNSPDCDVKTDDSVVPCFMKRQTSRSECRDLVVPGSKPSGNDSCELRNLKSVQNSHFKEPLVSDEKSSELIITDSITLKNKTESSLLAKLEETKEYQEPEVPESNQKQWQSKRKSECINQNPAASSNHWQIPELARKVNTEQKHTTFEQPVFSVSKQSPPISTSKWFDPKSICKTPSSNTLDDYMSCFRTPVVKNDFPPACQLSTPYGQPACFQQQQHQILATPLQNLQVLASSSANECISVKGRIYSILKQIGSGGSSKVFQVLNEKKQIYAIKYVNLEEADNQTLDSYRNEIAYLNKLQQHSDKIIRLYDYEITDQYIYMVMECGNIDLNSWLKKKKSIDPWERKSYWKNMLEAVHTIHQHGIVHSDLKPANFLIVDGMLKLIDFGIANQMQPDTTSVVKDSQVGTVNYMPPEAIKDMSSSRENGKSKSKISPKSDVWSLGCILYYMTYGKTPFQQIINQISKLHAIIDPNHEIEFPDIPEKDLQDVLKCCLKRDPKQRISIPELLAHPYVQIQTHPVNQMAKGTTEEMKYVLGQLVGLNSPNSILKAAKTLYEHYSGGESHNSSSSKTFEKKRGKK
In short: as §1

T1 sequence (Q96GD4 whole entry, species assumed): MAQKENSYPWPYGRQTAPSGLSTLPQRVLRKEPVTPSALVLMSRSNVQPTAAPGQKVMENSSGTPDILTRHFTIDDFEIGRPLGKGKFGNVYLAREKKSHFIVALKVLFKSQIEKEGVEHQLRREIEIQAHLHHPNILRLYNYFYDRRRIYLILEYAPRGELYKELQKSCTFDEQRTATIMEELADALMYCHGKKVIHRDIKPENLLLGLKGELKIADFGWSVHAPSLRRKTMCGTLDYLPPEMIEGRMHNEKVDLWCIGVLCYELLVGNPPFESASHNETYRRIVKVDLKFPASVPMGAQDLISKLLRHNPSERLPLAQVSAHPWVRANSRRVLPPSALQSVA

| SMILES | IC50 (AURKB) | IC50 (IGF1R) | IC50 (MAPK11) | IC50 (MAPK14) | IC50 (MAPKAPK3) | IC50 (PDPK1 (PDK1)) | IC50 (PKN2 (PRK2)) | IC50 (PRKAA1) | IC50 (PRKCZ) | IC50 (ROCK2 (Rock II)) | remaining activity at 1 µM (ROCK2 (Rock II); read-out: residual kinase activity Rock II) | IC50 (RPS6KA5) | IC50 (TTK) | remaining activity at 1 µM (PDPK1 (PDK1); read-out: residual kinase activity PDK1) | remaining activity at 1 µM (PKN2 (PRK2); read-out: residual kinase activity PRK2) |
| --- | --- | --- | --- | --- | --- | --- | --- | --- | --- | --- | --- | --- | --- | --- | --- |
| c1ccc(Cc2c[nH]c3ncsc23)cc1 [Compound A7, 6-benzyl-4H-pyrrolo[2,3-d]thiazole] | 1 to 10 µM | 10 to 100 µM | 1 to 10 µM | 1 to 10 µM | > 1 µM | > 1 µM | 1 to 10 µM | 10 to 100 µM | > 1 µM | 0.01 to 1 µM | 36% | 1 to 10 µM | 10 to 100 µM | – | – |
| Nc1ncsc1C#Cc1cnc2[nH]ccc2c1 [Compound A22, 5-(1H-pyrrolo[2,3-b]pyridin-5-ylethynyl)thiazol-4-ylamine] | 10 to 100 µM | 1 to 10 µM | > 1 µM | 10 to 100 µM | > 1 µM | 1 to 10 µM | 0.01 to 1 µM | 10 to 100 µM | > 1 µM | > 1 µM | – | 10 to 100 µM | 10 to 100 µM | 53% | 38% |
| CC(C)(C)OC(=O)Nc1nc(-c2ccncc2)sc1C#CCN1CCOCC1 [Compound A25, tert-butyl[5-(3-morpholin-4-ylprop-1-ynyl)-2-pyridin-4-ylthiazol-4-yl]-carbamate] | > 1 µM | > 1 µM | > 1 µM | 10 to 100 µM | 10 to 100 µM | > 1 µM | > 1 µM | 10 to 100 µM | 10 to 100 µM | 10 to 100 µM | – | 10 to 100 µM | 10 to 100 µM | – | – |
| CC(C)(C)OC(=O)Nc1ncsc1C#CCN1C(=O)c2ccccc2C1=O [Compound A26, tert-butyl{5-[3-(1,3-dioxo-1,3-dihydroisoindol-2-yl)prop-1-ynyl]-thiazol-4-yl}carbamate] | > 1 µM | > 1 µM | > 1 µM | 10 to 100 µM | > 1 µM | 1 to 10 µM | 1 to 10 µM | 10 to 100 µM | 10 to 100 µM | > 1 µM | – | > 1 µM | 10 to 100 µM | – | – |
| Nc1ncsc1C#Cc1cccc(O)c1 [Compound A27, 3-(4-aminothiazol-5-ylethynyl)phenol] | 10 to 100 µM | > 1 µM | 1 to 10 µM | 1 to 10 µM | 10 to 100 µM | > 1 µM | 10 to 100 µM | 1 to 10 µM | > 1 µM | 10 to 100 µM | – | 10 to 100 µM | 10 to 100 µM | – | – |
